{"source": "patent US11684614B2", "about": "“Formulations of hydroxypyridonate actinide/lanthanide decorporation agents” (priority 2017, dated 2023)", "key": {"[1]": {"assay": "Radiolabeled in vivo ADME study in rats (with metabolite profiling)", "design": "species or system Sprague Dawley rats", "from_the_text": "Formulated material was used in the single dose in vivo ADME characterization studies in Sprague Dawley rats and Swiss-Webster mice with 14C-labeled 3,4,3-L1(1,2-HOPO).\nPharmacokinetic parameters and disposition/biodistribution of 3,4,3-L1(1,2-HOPO) were characterized in vivo (with the aid of two 14C labels on the spermine backbone of the parent product) in two non-GLP studies using Swiss-Webster mice and Sprague Dawley rats. The study designs for these two studies are shown in TABLE 5.1 and TABLE 5.2, respectively. Groups of six mice (3 male, 3 female) were given a single dose of [14C]-3,4,3-L1(1,2-HOPO) via iv, ip, or po routes, respectively. An additional group of six mice (3 male, 3 female) were administered the 14C-labeled API with permeability enhancer (10% sodium oleate) by oral gavage (po). Similarly, groups of six rats (3 male, 3 female) were administered a single iv dose of the 14C-labeled API or a single po dose of the 14C-labeled API with 10% sodium oleate. In each of these studies, samples were collected at scheduled time points up to 24 hr post-dose and analyzed for 14C content using liquid scintillation counting. Blood, liver, kidney, feces and urine were collected and analyzed from the mice. Blood, brain, liver, kidney, lungs, spleen, skeletal muscle tissues, gastrointestinal (GI) tract samples, carcasses, feces, and urine were collected and analyzed from the rats.\nThe principal excretion routes of radioactivity from [14C]-3,4,3-L1(1,2-HOPO) were both the feces and urine after an iv dose based on high levels of radioactivity in both feces and urine as well as significant radioactivity in the excretory tissues, kidney, liver and GI tract. Fecal elimination by 24 hr post-dose accounted for approximately 62% and 16% of the iv administered dose in mice and rats, respectively. Urinary excretion accounted for approximately 12-23% of the iv administered dose in these rodents with renal excretion of 14C beginning as early as 5 min after iv injection in mice. In contrast, following oral administration, excretion was primarily by the fecal route accounting for approximately 89% and 41% of the orally administered dose in mice and rats, respectively, by 24 h post-dose. Urinary excretion accounted for <1% of the orally administered dose and low radioactivity levels were detected in systemic circulation and in tissues except for the GI tract. […] Based on the colonic transit time in rats of 15.5 hr, 11 the radioactivity found in the feces in the first 24 hr after po administration is most likely unabsorbed compound. […] Metabolite profiling of [14C]-3,4,3-L1(1,2-HOPO) was performed using an HPLC method on selected urine, feces, kidney, liver, and lung samples from the Sprague Dawley rat. Only samples containing the highest total radioactive levels were selected for analysis. A total of 11 peaks were detected, of which 6 were from uncharacterized interactions between the test article and matrix components because they were also seen in spiked blank matrix controls. These 6 peaks are not metabolites and are considered alternate forms of the parent compound (e.g. complexes of the test article with metallic ions). The 5 other radioactive species (peaks P1-P4 and P10) are considered potential metabolites. Feces-specific metabolite peaks P2, P3, and P10 represented a combined 10.5-11.4% and 0.5-4.2% of the administered dose after po or iv administration, respectively, in rats. Peak P10 was the most abundant peak in all samples analyzed. It represented up to 10% of the administered dose in feces after po administration while the other two feces-specific peaks represented <1% of the administered dose after po administration. Peak P10 was also the predominant, and sometimes the only, peak in feces samples after iv administration. […]"}, "[2]": {"assay": "GLP single oral dose pharmacokinetic assessment in beagle dogs", "assay_type": "in vivo", "protocol": "Pharmacokinetic parameters in beagle dogs after a single oral administration of formulated capsules was determined in a GLP study. A validated bioanalytical method was used to determine the plasma concentration in 3 dogs/sex after capsule administration of 37.5, 75, and 150 mg/kg (50, 100, and 200 μmol/kg) of clinically formulated 3,4,3-L1(1,2-HOPO). […] Similarly, mean exposure, based on AUCinf, was 1979±777 hr·ng/ml and 4741 hr·ng/ml for low-dose males and females, respectively; 4317±1721 hr·ng/ml and 8610 hr·ng/ml for mid-dose males and females, respectively; and 12022±5458 hr·ng/ml and 8305±1607 hr·ng/ml for high-dose males and females, respectively. […] The mean t½ was consistently short across dose groups and ranged from 0.5 to 0.9 hr."}}, "data": [{"smiles": "O=C(NCCCN(CCCCN(CCCNC(=O)c1cccc(=O)n1O)C(=O)c1cccc(=O)n1O)C(=O)c1cccc(=O)n1O)c1cccc(=O)n1O", "note": "[3,4,3-L1(1,2-HOPO)]", "values": [{"measurement": "oral bioavailability (F) of radioactive compound", "setting": "[1]; female rats", "result": 1.1, "unit": "%"}, {"measurement": "oral bioavailability (F) of radioactive compound", "setting": "[1]; male rats", "result": 0.4, "unit": "%"}, {"measurement": "mean t½", "setting": "[1]; oral administration, rats", "result": "~1", "unit": "h"}, {"measurement": "Tmax", "setting": "[1]; oral dose, rodents (rats)", "result": "~42", "unit": "min"}, {"measurement": "mean AUCinf", "setting": "[2]; high-dose (150 mg/kg) females", "result": "8305 ± 1607", "unit": "ng·h/mL"}, {"measurement": "mean AUCinf", "setting": "[2]; high-dose (150 mg/kg) males", "result": "12022 ± 5458", "unit": "ng·h/mL"}, {"measurement": "mean Cmax and AUCinf, females compared with males", "setting": "[2]; low and mid doses", "result": "1.7- to 2.4 fold"}, {"measurement": "mean AUCinf", "setting": "[2]; low-dose (37.5 mg/kg) females", "result": 4741, "unit": "ng·h/mL"}, {"measurement": "mean AUCinf", "setting": "[2]; low-dose (37.5 mg/kg) males", "result": "1979 ± 777", "unit": "ng·h/mL"}, {"measurement": "mean AUCinf", "setting": "[2]; mid-dose (75 mg/kg) females", "result": 8610, "unit": "ng·h/mL"}, {"measurement": "mean AUCinf", "setting": "[2]; mid-dose (75 mg/kg) males", "result": "4317 ± 1721", "unit": "ng·h/mL"}, {"measurement": "mean t½", "setting": "[2]; oral, across dose groups, dogs", "result": "30 to 54", "unit": "min"}, {"measurement": "Tmax", "setting": "[2]; single oral capsule dose, 37.5, 75, and 150 mg/kg, dogs", "result": "36 to 66", "unit": "min"}]}]}
